Experimental data from US8809314B1, “Cephalosporin compound” (Cubist Pharmaceuticals, Inc., priority 2012, dated 2014).
≈ marks a conversion by molar mass, not a printed value. Counter-ions that a name gives are not always drawn.

Experiments:
[1] = test system: Pa44 (WT Pa); assay: MIC, broth microdilution (Example 3), Table 1; type: cell-based; conditions: Pseudomonas aeruginosa, CAMHB
Description: (§1) To prepare for MIC testing, individual colonies were isolated by streaking frozen glycerol material containing Staphylococcus or Pseudomonas spp. onto rich, non-selective, tryptic soy agar containing 5% sheep's blood (TSAB), and incubated at 37° C. for 18-24 hrs.
(§2) On the day of testing, primary cultures were started by scraping off 5-10 colonies from the TSAB plates. The material was suspended in ˜5 mL of cation adjusted Mueller Hinton Broth (CAMHB) in 14 mL culture tubes and incubated at 37° C. with aeration (200 rpm) for ˜2 hrs until the OD600 was ≧0.1.
(§3) Inoculum cultures were prepared by standardizing the primary cultures to OD600=0.1 and then adding 20 μL of the adjusted primary culture per 1 mL CAMHB for Pseudomonas and CAMHB plus 4% NaCl for MRSA so that the final inoculum density was ˜10^5 colony forming units per milliliter. Diluted inoculum cultures were used to inoculate 50 μL per well in 96 well broth microdilution assay plates. 50 μL of CAMHB that contained compound concentrations ranging from 64-0.06 μg/mL in two-fold dilutions was also added to the broth microdilution assay plates for a final volume 100 μL per well, therefore final culture OD600 was approximately 0.001 and the final NaCl concentration for the MRSA strain was 2%.
(§4) Plates were incubated for 18-20 hours at 37° C. with aeration (200 rpm). Following incubation, growth was confirmed visually placing plates over a viewing apparatus (stand with a mirror underneath) and then OD600 was measured using a SpectraMax 340PC384 plate reader (Molecular Devices, Sunnyvale, Calif.). Growth was defined as turbidity that could be detected with the naked eye or achieving minimum OD600 of 0.1. MIC values were defined as the lowest concentration producing no visible turbidity.

[2] = test system: Sa399 (MRSA); assay: MIC, broth microdilution (Example 3), Table 1; type: cell-based; conditions: Staphylococcus aureus, CAMHB, final 2% NaCl
Description: as §1, §2, §3, §4

[3] = test system: Pseudomonas aeruginosa (n = 100); assay: MIC90, expanded MIC panel (Table 4); type: cell-based; conditions: 100 Pa strains
Description: (§5) II. […] MIC90 values were defined as the concentration required to inhibit growth of 90% of the strains tested. • C. SAR was performed using the following isolates: Sa399 (ATCC43300, MRSA), Sa1721 (NARSA NRS384, MRSA USA 300), Pa44 (ATCC27853), and 4 clinical isolates (Pa2241, Pa2086 (mucoid strain), Pa2694 and Pa2698). • D. The in vitro antibacterial activity of the compound of formula (I) was further evaluated in an expanded MRSA and Pa MIC panel (see Table 4 and FIG. 6).

[4] = test system: MRSA (n = 21); assay: MIC90, expanded MIC panel (Table 4); type: cell-based; conditions: Staphylococcus aureus, MRSA, read-out: MIC90 MRSA (n = 21)
Description: as §5

[5] = test system: MRSA #712; assay: MIC in MHB by standard CLSI microdilution (Example 4); type: cell-based; conditions: Staphylococcus aureus, MRSA
From the text: II. Methods • A. Animals: Six week-old, specific pathogen free, female CD-1 mice purchased from Charles River Laboratories (Wilmington, Mass.) were used for all studies after acclimation in Cubist animal facility. All animal procedures were approved by the Cubist Institutional Animal Care and Use Committee. • B. Bacteria and In Vitro Susceptibility Testing: MRSA #712, Pseudomonas aeruginosa #2245 and #2545, and Klebsiella pneumoniae #573 are clinical isolates; Pseudomonas aeruginosa #44 is an ATCC strain (ATCC#27853). MIC was determined in MHB by standard CLSI microdilution. Comparator Antibiotics Used in Animal Studies: Vancomycin hydrochloride USP was purchased from Hospira (Lake Forest, Ill.); ceftazidime hydrate from Sigma; Primaxin (imipenem and cilastatin) from Merck; ceftaroline was synthesized at a CRO. • D. Mouse Septicemia: Mice received lethal inocula of bacteria in 6% hog gastric mucin intraperitoneally (IP), followed by two treatment doses of antibiotics via subcutaneous (SC) administration at 1 and 6 hrs post-inoculation. The survival of animals was recorded daily for 7 days. The antibiotic dose calculated to protect 50% of the mice (PD50) was derived based on probit analysis of percentage survival. • E. Mouse Thigh and Lung Infections: Mice were rendered neutropenic by two IP injections of cyclophosphamide 4 days (150 mg/kg) and 1 day (100 mg/kg) before bacterial inoculation. Thigh or lung infection was induced by an intramuscular injection of 0.2 mL or intranasal inoculation of 0.1 mL inoculum preparation from an overnight bacterial culture into left thigh or nares. Tissues from one group of mice receiving no treatment (No Rx) were harvested at 1 hr for determination of baseline of bacterial burden. The remaining mice received two treatment doses of vehicles or antibiotics given SC at 1 and 6 hrs post-inoculation. Tissues from the treated mice were harvested at ˜24 hrs post-inoculation. Tissue bacterial burdens were quantified by serial dilution and spiral plating of homogenates.

[6] = test system: MRSA #712; assay: Mouse septicemia (systemic infection), PD50; type: in vivo, Staphylococcus aureus; conditions: CD-1 mice, IP inoculum, 2 SC doses at 1 and 6 hrs, 7 day survival
Description: (§6) In vivo efficacy of (I) was evaluated against strains of MRSA, and ceftazidime-resistant Pa and Klebsiella pneumonia (Kpn) in mouse septicemia, thigh and lung infections. Septicemia: CD-1 mice received lethal bacterial inocula IP, followed by 2 doses of antibiotics SC at 1 and 6 hrs post-inoculation. Dose calculated to protect 50% of the mice (PD50) was derived based on probit analysis of percentage survival. Thigh and lung infections: Thighs or lungs of neutropenic mice were inoculated with MRSA or Pa. Two treatment doses were given SC at 1 and 6 hrs post-inoculation. Tissues were harvested at ˜24 hrs post-inoculation and bacterial burdens quantified.
II. […] MIC was determined in MHB by standard CLSI microdilution. […] The survival of animals was recorded daily for 7 days. The antibiotic dose calculated to protect 50% of the mice (PD50) was derived based on probit analysis of percentage survival. • E. Mouse Thigh and Lung Infections: Mice were rendered neutropenic by two IP injections of cyclophosphamide 4 days (150 mg/kg) and 1 day (100 mg/kg) before bacterial inoculation. […] Tissue bacterial burdens were quantified by serial dilution and spiral plating of homogenates.
III. […] The dose that protected 50% of the mice (PD50) was calculated by probit analysis based on percentage of mice surviving for 7 days post-inoculation. • C. […]

[7] = test system: MRSA #712; assay: Thigh infection in neutropenic mice; type: in vivo, Staphylococcus aureus
Description: as §6
II. Methods • A. Animals: Six week-old, specific pathogen free, female CD-1 mice purchased from Charles River Laboratories (Wilmington, Mass.) were used for all studies after acclimation in Cubist animal facility. All animal procedures were approved by the Cubist Institutional Animal Care and Use Committee. • B. Bacteria and In Vitro Susceptibility Testing: MRSA #712, Pseudomonas aeruginosa #2245 and #2545, and Klebsiella pneumoniae #573 are clinical isolates; Pseudomonas aeruginosa #44 is an ATCC strain (ATCC#27853). MIC was determined in MHB by standard CLSI microdilution. […] The survival of animals was recorded daily for 7 days. The antibiotic dose calculated to protect 50% of the mice (PD50) was derived based on probit analysis of percentage survival. • E. Mouse Thigh and Lung Infections: Mice were rendered neutropenic by two IP injections of cyclophosphamide 4 days (150 mg/kg) and 1 day (100 mg/kg) before bacterial inoculation. […] Tissue bacterial burdens were quantified by serial dilution and spiral plating of homogenates.

CO/N=C(\C(=O)N[C@@H]1C(=O)N2C(C(=O)[O-])=C(C[n+]3ccc(CNC(=O)c4ccccc4)cc3)CS[C@H]12)c1nc(N)sc1Cl [Compound 1-2]
MIC [1]: > 16 µg/mL
MIC [2]: ≤ 4 µg/mL

CCCc1ccc(C(=O)NCc2cc[n+](CC3=C(C(=O)[O-])N4C(=O)[C@@H](NC(=O)/C(=N\OC)c5nc(N)sc5Cl)[C@H]4SC3)cc2)cc1 [Compound 1-3]
MIC [1]: > 16 µg/mL
MIC [2]: 8 to 16 µg/mL (≈ 11.7 to 23.4 µM)

CO/N=C(\C(=O)N[C@@H]1C(=O)N2C(C(=O)[O-])=C(C[n+]3ccc(CNC(=O)c4cccc(CCNC(=O)C(F)(F)F)c4)cc3)CS[C@H]12)c1nc(N)sc1Cl [Compound 1-4]
MIC [1]: > 16 µg/mL
MIC [2]: 8 to 16 µg/mL (≈ 10.2 to 20.5 µM)

C[C@@H](O)[C@H]1C(=O)N2C(C(=O)O)=C(S[C@@H]3CN[C@H](C(=O)N(C)C)C3)[C@H](C)[C@H]12 [Meropenem]
MIC90 [3]: 4 µg/mL (≈ 10.4 µM)

CN[C@H](CC(C)C)C(=O)N[C@H]1C(=O)N[C@@H](CC(N)=O)C(=O)N[C@H]2C(=O)N[C@H]3C(=O)N[C@H](C(=O)N[C@H](C(=O)O)c4cc(O)cc(O)c4-c4cc3ccc4O)[C@H](O)c3ccc(c(Cl)c3)Oc3cc2cc(c3O[C@@H]2O[C@H](CO)[C@@H](O)[C@H](O)[C@H]2O[C@H]2C[C@](C)(N)[C@H](O)[C@H](C)O2)Oc2ccc(cc2Cl)[C@H]1O [Vancomycin, Vancomycin hydrochloride]
MIC90 [4]: 1 µg/mL
MIC [5]: 1 µg/mL
Septicemia PD50 (± SE) [6]: 2.0 ± 1.3 mg/kg
Thigh (T) ED−2log ([7]; MRSA #712 thigh infection, neutropenic mice, 2 SC doses at 1 and 6 hrs, 24 h, vs vehicle): >110 (T) mg/kg
reduction in bacterial CFU ([7]; MRSA #712 thigh, 110 mg/kg SC): ~1.5 log
